Results on 22 compounds are retold here after patent US20080161340A1, “Tetrahydroquinilinones, tetrahydronaphthyridones and derivatives thereof” (priority 2006, published 2008).

SMILES strings stand for the structures.

Assay type in all cases: cell-based
Assay [1] concerns the target T1, hCB1 (Homo sapiens, UniProt P21554).
T1 construct: host or cells: CHO-K1
Briefly: cAMP assay (LANCE TR-FRET) in CHO-K1 cells stably expressing hCB1, agonist/inverse agonist. The note with it: intracellular cAMP, CHO-K1 hCB1 cells prestimulated with NKH-477, + agonist, − inverse agonist; for EC50: read-out: hCB1 EC50 class. On the procedure: (§1) The ability of compounds to act as agonists or inverse agonists at human CB2 and CB1 receptors (hCB2, hCB1, respectively) was determined by measuring changes in intracellular cAMP levels. Chinese Hamster Ovary (CHO-K1) cell lines stably expressing hCB2 (Genebank: X74328) or hCB1 (Genebank: X54937) were purchased from Euroscreen (Gosselies, Belgium).
(§2) Cell lines were grown in suspension in EX-CELL 302 CHO Serum-free medium (Sigma, cat #14324C) supplemented with 1% Fetal Bovine Serum, glutamine and non-essential amino-acids under 0.4 mg/mL G418 selection.
(§3) Receptor mediated responses were determined by measuring changes in intracellular cAMP using LANCE cAMP detection kit (cat #AD0264, PerkinElmer, Wellesley, Mass.) based on time-resolved fluorescence resonance energy transfer (TR-FRET). Changes in cAMP were determined in cells pre-incubated with IBMX (isobutyl methylxanthine) and prestimulated with NKH-477 (a water soluble forskolin derivative, cat #1603, Tocris, Ellisville, Mo.) to increase basal cAMP levels as detailed below.
(§4) On the day of the experiment, cells were spun at low speed for 5 min at room temperature. The supernatant was removed and cells were resuspended in stimulation buffer (Hanks Buffered Salt Solution/5 mM HEPES, containing 0.5 mM IBMX (cat #17018, Sigma) and 0.02% BSA (PerkinElmer, cat #CR84-100)). Cell clumps were removed by filtering through cell strainer 40 μm (BD Falcon, Discovery Labware, Bedford, Mass.) and diluted to 2×10^5 cells/mL. Antibody supplied with the LANCE cAMP immunoassay kit was then added according to the manufacturer's instructions. An aliquot of cells was taken for un-induced controls. To the remaining cells was added NKH-477 (a water soluble forskolin derivative, Tocris cat #1603) to a final concentration of 2-8 μM. Cells were then incubated for 30 min at room temperature prior to adding to Proxiplates containing test compounds (final DMSO concentration was less than 0.5%) with a Multidrop bulk dispenser, followed by a sixty minute incubation at room temperature. The response was stopped by addition of the detection mix supplied with the LANCE kit.
(§5) The reagents were allowed to equilibrate for three hours prior to reading on an Envision multi-mode detector (PerkinElmer). TR-FRET was measured using a 330-380 nm excitation filter, a 665 nm emission filter, dichroic mirror 380 nm and Z=1 mm.
(§6) Cyclic AMP concentrations in each well were back-calculated from a cAMP standard curve run concurrently during each assay. Each plate contained 16 wells of forskolin stimulated cells and 16 wells of forskolin plus CP55,940-treated. CP55,940-treated cells were treated with CP55,940 (Tocris cat. # 0949) at 1 μm and the maximal response was used as the full range (100%) standard. WIN55,212 (Tocris cat. # 1038) was used as an internal standard. Concentrations of cAMP were expressed as a percent of the difference of these two groups of wells. Concentration-response data including ECso (the concentration of compound producing 50% of the maximal response) and intrinsic activity (the percent maximal activation compared to full activation by CP55,940) were determined using a four-parameter non-linear regression algorithm (Xlfit equation 251, IDBS).

The target in assay [2] is T2, hCB2 (Homo sapiens, UniProt P34972).
T2 construct: host or cells: CHO-K1
T2 sequence (P34972 whole entry): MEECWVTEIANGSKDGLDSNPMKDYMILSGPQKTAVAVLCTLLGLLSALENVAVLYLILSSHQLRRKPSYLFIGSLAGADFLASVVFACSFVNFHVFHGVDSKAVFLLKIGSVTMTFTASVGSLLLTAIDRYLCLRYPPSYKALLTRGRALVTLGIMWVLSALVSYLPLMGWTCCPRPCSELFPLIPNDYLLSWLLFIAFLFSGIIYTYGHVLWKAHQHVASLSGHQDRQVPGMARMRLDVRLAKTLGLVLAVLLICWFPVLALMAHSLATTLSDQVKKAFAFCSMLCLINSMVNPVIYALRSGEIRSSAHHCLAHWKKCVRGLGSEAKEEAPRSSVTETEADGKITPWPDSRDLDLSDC
Briefly: cAMP assay (LANCE TR-FRET) in CHO-K1 cells stably expressing hCB2, agonist/inverse agonist. The conditions noted are these: intracellular cAMP, CHO-K1 hCB2 cells prestimulated with NKH-477; + agonist, − inverse agonist. The method, then: as §1, §2, §3, §4, §5, §6

In assay [3] the target is T3, rCB2 (Rattus norvegicus, UniProt Q9QZN9).
T3 sequence (Q9QZN9 1-360): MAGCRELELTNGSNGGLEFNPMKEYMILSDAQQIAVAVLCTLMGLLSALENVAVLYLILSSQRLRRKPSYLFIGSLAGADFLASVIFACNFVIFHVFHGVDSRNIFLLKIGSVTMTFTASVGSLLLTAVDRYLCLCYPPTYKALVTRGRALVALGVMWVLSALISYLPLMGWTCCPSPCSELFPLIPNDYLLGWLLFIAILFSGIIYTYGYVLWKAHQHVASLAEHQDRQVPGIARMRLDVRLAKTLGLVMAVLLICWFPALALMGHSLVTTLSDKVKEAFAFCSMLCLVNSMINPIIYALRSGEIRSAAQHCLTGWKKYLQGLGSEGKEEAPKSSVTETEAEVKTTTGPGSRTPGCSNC
Briefly: cAMP assay, rCB2 in Table 7, agonist/inverse agonist. The note with it: intracellular cAMP; + agonist, − inverse agonist. The method, then:
as §3, §4, §5, §6

T1 sequence (P21554 whole entry): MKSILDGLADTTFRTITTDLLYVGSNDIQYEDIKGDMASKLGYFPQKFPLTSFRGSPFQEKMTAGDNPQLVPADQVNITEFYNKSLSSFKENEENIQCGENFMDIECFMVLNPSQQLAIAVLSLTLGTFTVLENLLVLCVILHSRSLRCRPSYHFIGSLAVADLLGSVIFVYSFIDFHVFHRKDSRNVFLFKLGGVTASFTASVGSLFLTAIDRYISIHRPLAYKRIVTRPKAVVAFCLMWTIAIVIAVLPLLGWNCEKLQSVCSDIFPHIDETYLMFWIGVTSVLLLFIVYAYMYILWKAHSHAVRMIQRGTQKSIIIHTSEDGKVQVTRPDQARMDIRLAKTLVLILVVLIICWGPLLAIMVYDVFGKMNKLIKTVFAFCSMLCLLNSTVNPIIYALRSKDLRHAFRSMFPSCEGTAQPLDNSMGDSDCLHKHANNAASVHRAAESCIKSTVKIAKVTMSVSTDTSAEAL

For the compound `CC(C)CS(=O)(=O)N1CCc2c(cc(-c3cccc(Cl)c3)c(=O)n2CC2CC2)C1` [Compound 50, 3-(3-chlorophenyl)-1-(cyclopropylmethyl)-6-(isobutylsulfonyl)-5,6,7,8-tetrahydro-1,6-naphthyridin-2(1H)-one], the “hCB1 EC50 class” value in assay [1] is “−B”. For the same compound, in assay [2], the “hCB2 EC50 class” value is on record as “+C”. Moreover, the “rCB2 EC50 class” value in assay [3] is “−B”.

For `COc1cccc(-c2cc3c(n(CC4CCC4)c2=O)CCN(C(C)=O)C3)c1` [Compound 55, 6-acetyl-1-(cyclobutylmethyl)-3-(3-methoxyphenyl)-5,6,7,8-tetrahydro-1,6-naphthyridin-2(1H)-one], the “hCB1 EC50 class” value in assay [1] was “−B”. In assay [3], the “rCB2 EC50 class” value is listed as “−C”.

Regarding `O=c1c(-c2ccoc2)cc2c(n1CC1CCC1)CCCC2` [Compound 12, 1-(cyclobutylmethyl)-3-(furan-3-yl)-5,6,7,8-tetrahydroquinolin-2(1H)-one], in assay [1], the concentration giving a half-maximal response (EC50) is above 10 µM. Further, the “hCB2 EC50 class” value in assay [2] is recorded as “+C”. Further, the “rCB2 EC50 class” value in assay [3] is recorded as “+B”.

`O=c1c(-c2ccccc2Cl)cc2c(n1CC1CCC1)CCCC2` [Compound 18, 3-(2-chlorophenyl)-1-(cyclobutylmethyl)-5,6,7,8-tetrahydroquinolin-2(1H)-one]: in assay [1], the concentration giving a half-maximal response (EC50) is above 10 µM. Further, the “hCB2 EC50 class” value in assay [2] is “+B”. Moreover, the “rCB2 EC50 class” value in assay [3] is on record as “+B”.

On to `O=c1c(-c2cccnc2)cc2c(n1CC1CCC1)CCCC2` [Compound 10, 1-(cyclobutylmethyl)-3-(pyridin-3-yl)-5,6,7,8-tetrahydroquinolin-2(1H)-one], for which the EC50 in assay [1] is above 10 µM. In addition, the “hCB2 EC50 class” value in assay [2] was “+B”. Moreover, the “rCB2 EC50 class” value in assay [3] is given as “+B”.

Regarding `O=c1c(-c2cccc(Cl)c2)cc2c(n1CC1CC1)CCCC2` [Compound 22, 3-(3-chlorophenyl)-1-(cyclopropylmethyl)-5,6,7,8-tetrahydroquinolin-2(1H)-one], the EC50 in assay [1] was above 10 µM. Also, the “hCB2 EC50 class” value in assay [2] is reported as “+B”. In assay [3], the “rCB2 EC50 class” value was “−B”.

Turning to `O=c1c(-c2ccc(C(F)(F)F)cc2)cc2c(n1CC1CCC1)CCCC2` [Compound 7, 1-(cyclobutylmethyl)-3-(4-(trifluoromethyl)phenyl)-5,6,7,8-tetrahydroquinolin-2(1H)-one], the concentration for a half-maximal effect (EC50) in assay [1] was above 10 µM. Besides, the “hCB2 EC50 class” value in assay [2] was “+A”. For the same compound, the “rCB2 EC50 class” value in assay [3] is reported as “+A”.

As for `CC(=O)N1CCc2c(cc(-c3cccc(Cl)c3)c(=O)n2CC2CCC2)C1` [Compound 42, 6-acetyl-3-(3-chlorophenyl)-1-(cyclobutylmethyl)-5,6,7,8-tetrahydro-1,6-naphthyridin-2(1H)-one], the “hCB1 EC50 class” value in assay [1] is recorded as “+C”. In assay [2], the “hCB2 EC50 class” value is on record as “+A”. For the same compound, in assay [3], the “rCB2 EC50 class” value is on record as “+A”.

Take `CC(C)(C)OC(=O)N1CCc2c(cc(-c3ccc(C(F)(F)F)cc3)c(=O)n2CC2CCC2)C1` [Compound 36, tert-butyl 3-(4-(trifluoromethyl)phenyl)-1-(cyclobutylmethyl)-2-oxo-1,2,7,8-tetrahydro-1,6-naphthyridine-6(5H)-carboxylate]: the “rCB2 EC50 class” value in assay [3] is reported as “−C”.

`Cn1cc(-c2cc3c(n(CC4CCC4)c2=O)CCCC3)cn1` [Compound 26, 1-(cyclobutylmethyl)-3-(1-methyl-1H-pyrazol-4-yl)-5,6,7,8-tetrahydroquinolin-2(1H)-one]: the EC50 in assay [1] is above 10 µM. In addition, in assay [2], the “hCB2 EC50 class” value is “+B”. For the same compound, the “rCB2 EC50 class” value in assay [3] was “+A”.

For the compound `O=c1c(-c2ccc(C(F)(F)F)cc2)cc2c(n1CC1CCC1)CCN(S(=O)(=O)c1cccc(F)c1)C2` [Compound 57, 1-(cyclobutylmethyl)-6-(3-fluorophenylsulfonyl)-3-(4-(trifluoromethyl)phenyl)-5,6,7,8-tetrahydro-1,6-naphthyridin-2(1H)-one], the “rCB2 EC50 class” value in assay [3] is given as “−B”.

With `O=c1c(-c2cn[nH]c2)cc2c(n1CC1CCC1)CCCC2` [Compound 28, 1-(cyclobutylmethyl)-3-(1H-pyrazol-4-yl)-5,6,7,8-tetrahydroquinolin-2(1H)-one], in assay [1], the EC50 was above 10 µM. For the same compound, the “rCB2 EC50 class” value in assay [3] was “−C”.

Regarding `O=c1c(-c2ccc(C(F)(F)F)cc2)cc2c(n1CC1CCC1)CCN(S(=O)(=O)c1ccccc1)C2` [Compound 56, 1-(cyclobutylmethyl)-6-(phenylsulfonyl)-3-(4-(trifluoromethyl)phenyl)-5,6,7,8-tetrahydro-1,6-naphthyridin-2(1H)-one], in assay [1], the “hCB1 EC50 class” value was “−B”. In addition, in assay [3], the “rCB2 EC50 class” value is on record as “−C”.

`CC(C)(C)OC(=O)N1CCc2c(cc(-c3cccc(Cl)c3)c(=O)n2CC2CCC2)C1` [Compound 35, tert-butyl 3-(3-chlorophenyl)-1-(cyclobutylmethyl)-2-oxo-1,2,7,8-tetrahydro-1,6-naphthyridine-6(5H)-carboxylate]: the EC50 in assay [1] was above 10 µM. The “rCB2 EC50 class” value in assay [3] is recorded as “−B”.

As to `CC(C)C(=O)N1CCc2c(cc(-c3cccc(Cl)c3)c(=O)n2CC2CC2)C1` [Compound 51, 3-(3-chlorophenyl)-1-(cyclopropylmethyl)-6-isobutyryl-5,6,7,8-tetrahydro-1,6-naphthyridin-2(1H)-one], the “hCB2 EC50 class” value in assay [2] is on record as “+B”.

For the compound `O=c1c(-c2cccc(F)c2)cc2c(n1CC1CC1)CCCC2` [Compound 4, 1-(cyclopropylmethyl)-3-(3-fluorophenyl)-5,6,7,8-tetrahydroquinolin-2(1H)-one], the “hCB1 EC50 class” value in assay [1] was “+C”. Besides, the “rCB2 EC50 class” value in assay [3] is “+C”.

`CC(C)(C)OC(=O)N1CCc2c(cc(-c3cccnc3)c(=O)n2CC2CCC2)C1` [Compound 37, tert-butyl 1-(cyclobutylmethyl)-2-oxo-3-(pyridin-3-yl)-1,2,7,8-tetrahydro-1,6-naphthyridine-6(5H)-carboxylate]: the “rCB2 EC50 class” value in assay [3] is listed as “−C”.

For `Cc1noc(C)c1-c1cc2c(n(CC3CCC3)c1=O)CCCC2` [Compound 27, 1-(cyclobutylmethyl)-3-(3,5-dimethylisoxazol-4-yl)-5,6,7,8-tetrahydroquinolin-2(1H)-one], the “hCB2 EC50 class” value in assay [2] is listed as “+B”.

For the compound `O=c1c(-c2cccc(C(F)(F)F)c2)cc2c(n1CC1CCCCC1)CCCC2` [Compound 24, 1-(cyclohexylmethyl)-3-(3-(trifluoromethyl)phenyl)-5,6,7,8-tetrahydroquinolin-2(1H)-one], the “hCB1 EC50 class” value in assay [1] is “+B”. Also, the “hCB2 EC50 class” value in assay [2] was “+A”.

Consider `O=c1c(C2=NN(c3ccccc3)C(c3ccco3)C2)cc2c(n1CC1CCC1)CCCC2` (stereo not drawn) [Compound 21, 1-(cyclobutylmethyl)-3-(5-(furan-2-yl)-1-phenyl-4,5-dihydro-1H-pyrazol-3-yl)-5,6,7,8-tetrahydroquinolin-2(1H)-one], for which the “hCB2 EC50 class” value in assay [2] is “+C”.

For `COc1ccncc1-c1cc2c(n(CC3CCC3)c1=O)CCCC2` [Compound 13, 1-(cyclobutylmethyl)-3-(4-methoxypyridin-3-yl)-5,6,7,8-tetrahydroquinolin-2(1H)-one], the “hCB2 EC50 class” value in assay [2] is reported as “+B”.

For `O=C(c1ccno1)N1CCc2c(cc(-c3ccc(C(F)(F)F)cc3)c(=O)n2CC2CCC2)C1` [Compound 45, 1-(cyclobutylmethyl)-6-(isoxazole-5-carbonyl)-3-(4-(trifluoromethyl)phenyl)-5,6,7,8-tetrahydro-1,6-naphthyridin-2(1H)-one], the 50% effective concentration (EC50) in assay [1] was above 10 µM. The “rCB2 EC50 class” value in assay [3] is reported as “−C”.
